Several values for one entry are separate records, joined by “and”; a condition that tells them apart may be missing. Equal values may be shown once. Read-outs that look alike come from different tables or passages of the source. Each block holds one compound with its values, some of them ahead of it.
Tests used:
[1] = biological target: T1, human recombinant adrenergic α2A receptor (Homo sapiens, UniProt P08913); assay: Radioligand binding, adrenergic α2A ([3H]MK-912); settings: [3H]MK-912
T1 construct: expressed in transfected cells; host or cells: insect Sf9 cells
T1 sequence (P08913 1-465): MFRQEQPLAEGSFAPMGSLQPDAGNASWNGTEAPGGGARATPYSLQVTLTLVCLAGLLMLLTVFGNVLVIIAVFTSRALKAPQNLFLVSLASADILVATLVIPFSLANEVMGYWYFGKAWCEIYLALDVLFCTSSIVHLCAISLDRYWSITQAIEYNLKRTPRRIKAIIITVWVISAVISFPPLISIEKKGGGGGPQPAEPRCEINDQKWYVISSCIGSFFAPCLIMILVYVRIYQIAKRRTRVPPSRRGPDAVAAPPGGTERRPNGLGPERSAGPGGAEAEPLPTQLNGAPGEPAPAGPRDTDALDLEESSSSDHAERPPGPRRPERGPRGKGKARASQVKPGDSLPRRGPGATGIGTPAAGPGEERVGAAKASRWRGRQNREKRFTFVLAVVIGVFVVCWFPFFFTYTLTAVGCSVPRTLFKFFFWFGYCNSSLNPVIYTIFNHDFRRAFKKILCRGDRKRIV
Experimental: To evaluate in radioligand binding assays the activity of compounds of the invention, human recombinant adrenergic α2A receptor expressed in insect Sf9 cells (Uhlen, S. et al, J. Pharmacol. Exp. Ther. 271:1558, 1994) in a modified Tris-HCl buffer (50 mM Tris-HCl, pH 7.4, 12.5 mM MgCl2, 2 mM EDTA) was used. Compounds of invention were incubated with 1 nM [^3H]MK-912 for 60 min at 25° C. MK912 is (2S-trans)-1,3,4,5′,6,6′,7,12b-octahydro-1′,3′-dimethyl-spiro[2H-benzofuro[2,3-a]quinolizine-2,4′(1′H)-pyrimidin]-2′(3′H)-one hydrochloride. Non-specific binding was estimated in the presence of 10 μM WB-4101 (2-(2,6-Dimethoxyphenoxyethyl)aminomethyl-1,4-benzodioxane hydrochloride). Receptor proteins were filtered and washed, the filters were then counted to determine [^3H]MK-912 specifically bound. […] Compounds of the invention were tested in this biochemical assay and percent inhibition of specific binding was determined. Biochemical assay results are presented as the percent inhibition of specific binding in Table B1.

[2] = biological target: T2, rat adrenergic α1B receptor (Rattus norvegicus, UniProt P15823); assay: Radioligand binding, adrenergic α1B ([3H]Prazosin); parameters: species or system Wistar Rat
T2 construct: rat adrenergic α1B receptor obtained from Wistar Rat liver; from tissue; host or cells: Wistar rat liver
T2 sequence (P15823 1-515): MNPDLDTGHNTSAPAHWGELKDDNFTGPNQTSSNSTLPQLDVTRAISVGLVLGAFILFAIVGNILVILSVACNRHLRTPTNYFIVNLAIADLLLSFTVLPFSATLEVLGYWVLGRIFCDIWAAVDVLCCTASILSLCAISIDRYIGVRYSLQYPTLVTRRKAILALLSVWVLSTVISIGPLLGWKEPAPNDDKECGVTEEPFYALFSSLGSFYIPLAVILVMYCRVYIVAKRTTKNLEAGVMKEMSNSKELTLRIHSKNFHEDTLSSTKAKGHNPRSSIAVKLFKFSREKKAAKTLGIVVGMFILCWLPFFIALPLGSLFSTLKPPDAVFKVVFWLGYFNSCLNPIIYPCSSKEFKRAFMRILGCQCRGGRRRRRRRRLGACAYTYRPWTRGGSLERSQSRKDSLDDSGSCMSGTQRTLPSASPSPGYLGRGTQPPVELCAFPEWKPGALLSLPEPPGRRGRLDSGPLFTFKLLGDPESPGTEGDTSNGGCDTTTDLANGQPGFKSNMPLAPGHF
Experimental: To evaluate in radioligand binding assays the activity of compounds of the invention, rat adrenergic α1B receptor obtained from Wistar Rat liver (Garcia-S'ainz, J. et al, Biochem. Biophys. Res. Commun. 186:760, 1992; Michel, A. et al, Br. J. Pharmacol. 98:883, 1989) in a modified Tris-HCl buffer (50 mM Tris-HCl buffer, pH 7.4, 0.5 mM EDTA) was used. Compounds of the invention were incubated with 0.25 nM [^3H]Prazosin for 60 min at 25° C. Non-specific binding was estimated in the presence of 10 μM phentolamine. Receptor proteins were filtered and washed, the filters were then counted to determine [^3H]Prazosin specifically bound. […] Compounds of the invention were tested in this biochemical assay and percent inhibition of specific binding was determined. Biochemical assay results are presented as the percent inhibition of specific binding in Table B1.

[3] = compound at 0.1 μM, repeat datapoints each shown, 0.1 µM
[4] = read-out: Percentage inhibition of ligand binding, Adrenergic α2A (0.1 μM), compound at 0.1 μM, repeat datapoints each shown
[5] = 0.1 μM compound, read-out: Percentage inhibition of ligand binding, Adrenergic α2A
[6] = read-out: Percentage inhibition of ligand binding, Adrenergic α1B (0.1 μM), compound at 0.1 μM, repeat datapoints each shown

SMILES: Cc1ccc2c(c1)c1c(n2CC(OC(=O)C(C)(C)C)c2ccncc2)CCN(C)C1 (single isomer, unassigned) [130b]
Percentage inhibition of ligand binding, Adrenergic α2A ([1]; 0.03 μM compound, 0.03 µM): 13%
Percentage inhibition of ligand binding, Adrenergic α2A ([1]; 0.1 μM compound, 0.1 µM): 31%
Percentage inhibition of ligand binding, Adrenergic α1B ([2]; 0.03 μM compound, 0.03 µM): 2%
Percentage inhibition of ligand binding, Adrenergic α1B ([2]; 0.1 μM compound, 0.1 µM): 8% and 11%

SMILES: Cc1ccc2c(c1)c1c(n2CC(O)c2ccc(C#N)cc2)CCN(C)C1 (centres unmarked) [142b]
Percentage inhibition of ligand binding, Adrenergic α2A ([1]; 0.1 μM compound): 63%

SMILES: Cc1ccc2c(c1)c1c(n2CC(O)c2ccncc2)CCN2CCCC12 (single isomer, unassigned) [129a]
Percentage inhibition of ligand binding, Adrenergic α2A ([1]; 0.1 μM compound, 0.1 µM): 46%
Percentage inhibition of ligand binding, Adrenergic α1B ([2]; 0.1 μM compound, 0.1 µM): 73%

SMILES: Cc1ccc2c(c1)c1c(n2CC(N)c2ccncc2)CC2CCC1N2C (single isomer, unassigned) [155a]
Percentage inhibition of ligand binding, Adrenergic α2A ([1]; 0.1 μM compound, 0.1 µM): −1%

SMILES: Cc1ccc2c(c1)c1c(n2CC(c2ccncc2)N(C)C)CCN(C)C1 (single isomer, unassigned) [150b]
Percentage inhibition of ligand binding, Adrenergic α2A ([1]; 0.1 μM compound, 0.1 µM): 5%
Percentage inhibition of ligand binding, Adrenergic α1B ([2]; 0.1 μM compound, 0.1 µM): 7%

SMILES: Cc1ccc2c(c1)c1c(n2CC(O)c2ccc(F)cc2)CCN(C)C1 (centres unmarked) [30a]
Percentage inhibition of ligand binding, Adrenergic α1B (0.1 μM) [2, 3]: 57%

SMILES: CN1CCc2c(c3cc(Cl)ccc3n2CC(C)(O)c2ccc(C(F)(F)F)nc2)C1 (single isomer, unassigned) [143a]
Percentage inhibition of ligand binding, Adrenergic α1B ([2]; 0.1 μM compound, 0.1 µM): 43%

SMILES: Cc1ccc2c(c1)c1c(n2CC(O)c2ccncc2)CCN2CCCC12 (single isomer, unassigned) [129c]
inhibition at 0.03 µM ([1]; 0.03 μM compound, read-out: Percentage inhibition of ligand binding, Adrenergic α2A): 14%
inhibition at 0.1 µM [1, 5]: 29%

SMILES: CC(O)(Cn1c2c(c3cc(Cl)ccc31)CN(C1CCC1)CC2)c1cccnc1 (single isomer, unassigned) [II-118a]
Percentage inhibition of ligand binding, Adrenergic α2A (0.1 μM) [1, 3]: 3%

More lines, now with the values ahead:

Percentage inhibition of ligand binding, Adrenergic α1B (0.03 μM) ([2]; compound at 0.03 μM, repeat datapoints each shown): 43%
SMILES: CC(O)(Cn1c2c(c3cc(Cl)cnc31)C1CCCN1CC2)c1cccnc1 (single isomer, unassigned) [IV-210a]

Percentage inhibition of ligand binding, Adrenergic α1B (0.1 μM) [2, 3]: 11%
SMILES: Cc1ccc2c(c1)c1c(n2CC(C)(O)c2cccnc2)C(O)CN(C)C1 (single isomer, unassigned) [II-151a]

inhibition at 0.1 µM [1, 4]: 16%
SMILES: CN1CCc2c(c3cc(Cl)ccc3n2CC(O)c2cccnc2)C1 (centres unmarked) [compound 7]

Percentage inhibition of ligand binding, Adrenergic α1B ([2]; 0.1 μM compound): 7%
SMILES: Cc1ccc2c(c1)c1c(n2CC(c2ccncc2)N2CCCC2)CCN(C)C1 (single isomer, unassigned) [152b]

inhibition at 0.1 µM [1, 5]: 85%
inhibition at 0.1 µM ([2]; 0.1 μM compound, read-out: Percentage inhibition of ligand binding, Adrenergic α1B): 89%
SMILES: C/C(=C\n1c2c(c3cc(C)ccc31)C1CCCN1CC2)c1ccc(C)nc1 (centres unmarked) [193a, 10-methyl-7-(2-(6-methylpyridin-3-yl)prop-1-enyl)-2,3,5,6,7,11c-hexahydro-1H-indolizino[7,8-b]indole]

Percentage inhibition of ligand binding, Adrenergic α2A ([1]; compound at 0.1 μM, 0.1 µM): 64%
SMILES: CN1CCc2c(n(CC(O)c3ccc(F)c(F)c3)c3ccc(Cl)cc23)CC1 (single isomer, unassigned) [339b]

inhibition at 0.1 µM [2, 6]: 15%
SMILES: Cc1ccc2c(c1)c1c(n2CC(N=[N+]=[N-])c2ccncc2)CCN(C)C1 (racemic) [V-1, 5-(2-azido-2-(pyridin-4-yl)ethyl)-2,3,4,5-tetrahydro-2,8-dimethyl-1H-pyrido[4,3-b]indole]

inhibition at 0.1 µM [1, 4]: 63%
inhibition at 0.1 µM [2, 6]: 86%
SMILES: Cc1ccc2c(c1)c1c(n2CC(O)c2ccc(F)cc2)CCN(C)C1 (centres unmarked) [compound 30]

inhibition at 0.1 µM [2, 6]: 81%
SMILES: Cc1cnc2c(c1)c1c(n2CCc2ccc(C)nc2)CCN2CCCC12 (centres unmarked) [compound 74, 10-methyl-7-(2-(6-methylpyridin-3-yl)ethyl)-2,3,5,6,7,1c-hexahydro-1H-pyrido[3′,2′:4,5]pyrrolo[2,3-g]indolizine]

Percentage inhibition of ligand binding, Adrenergic α1B ([2]; compound at 0.1 μM): 25%
SMILES: Cc1ccc2c(c1)c1c(n2CC(O)c2cn[nH]c2)CCN(C)C1 (centres unmarked) [II-106a]

Percentage inhibition of ligand binding, Adrenergic α2A ([1]; compound at 0.1 μM, 0.1 µM): 4%
SMILES: OCCN1CCc2c(c3cc(Cl)ccc3n2CC(O)c2ccncc2)C1 (single isomer, unassigned) [II-93b]

Percentage inhibition of ligand binding, Adrenergic α2A ([1]; 0.1 μM compound): 17%
SMILES: Cc1ccc2c(c1)c1c(n2CC(c2ccncc2)N2CCCC2)CCN(C)C1 (single isomer, unassigned) [152a]
